From patent US20230405157A1, “MELANOCORTIN TYPE 2 RECEPTOR (MC2R) TARGETED THERAPEUTICS AND USES THEREOF” (Radionetics Oncology, Inc., priority 2022, published 2023)

Target: T1, human MC2R (Homo sapiens, UniProt Q01718)
T1 construct: host or cells: CellSensor CRE-bla CHO-K1 cells
Experiment: Inhibition of binding of ACTH in human MC2R-containing membranes (SPA radioligand competition)
Details: competition with 0.2 nM [125I]-TYR23]-ACTH (1-39), membranes of CHO-K1 cells expressing hMC2 receptor; read-out: hMC2 membrane binding
Protocol: Crude membrane fractions are prepared from CellSensor CRE-blaCHO-K1 cells stably expressing functional hMC2 receptor (ThermoFisher #K1483). […] Cells were collected and washed in Dulbecco's phosphate buffered saline (Corning #21-031-CV). […] The membrane fraction is separated from cell debris and collected in membrane preparation buffer, flash frozen in liquid nitrogen and stored at −80° C. […] Briefly, membranes from cells expressing the human MC2R were incubated with SPA beads (PerkinElmer #RPNQ0001) in binding assay buffer [50 mM HEPES (Biopioneer #C0113), 5 mM MgCl2 (Sigma #M8266), 1 mM CaCl2) (Fisher Scientific #BP510), 0.2% BSA (Fisher Scientific #BP1600), and protease inhibitors (Pierce #A32963); pH 7.4]. […] All data manipulations to determine the Kivalues were performed using GraphPad v8 (GraphPad, San Diego CA)

T1 sequence (Q01718 whole entry): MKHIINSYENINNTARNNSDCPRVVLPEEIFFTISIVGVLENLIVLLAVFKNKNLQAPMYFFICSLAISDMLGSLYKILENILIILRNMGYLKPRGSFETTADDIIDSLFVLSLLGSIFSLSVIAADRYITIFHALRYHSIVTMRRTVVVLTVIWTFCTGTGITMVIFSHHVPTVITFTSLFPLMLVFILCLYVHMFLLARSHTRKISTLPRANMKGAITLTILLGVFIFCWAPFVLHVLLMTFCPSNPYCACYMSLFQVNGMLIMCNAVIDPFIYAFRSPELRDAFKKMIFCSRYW
T1 sequence (Q8TCY5 whole entry partner): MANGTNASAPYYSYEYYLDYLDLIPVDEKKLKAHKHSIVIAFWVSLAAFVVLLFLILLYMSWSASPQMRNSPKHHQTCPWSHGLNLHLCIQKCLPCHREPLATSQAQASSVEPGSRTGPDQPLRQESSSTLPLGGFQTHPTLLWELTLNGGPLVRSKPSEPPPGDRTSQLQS

| Compound | Ki |
| --- | --- |
| 2,2′,2″-(10-((R)-8-amino-1-(2′-ethoxy-5-((R)-4-(6-ethoxy-2-(trifluoromethyl)-nicotinoyl)-2-ethylpiperazin-1-yl)-[2,3′-bipyridin]-6-yl)-7,10,18-trioxo-14-oxa-2,6,11,17-tetra-azanonadecan-19-yl)-1,4,7,10-tetraazacyclododecane-1,4,7-triyl)triacetic acid [Compound 10] | < 10 nM |
| CCOc1ccccc1-c1ccc(N2CCN(C(=O)c3ccc(Cl)cc3C(F)F)C[C@H]2CC)c(C(=O)NC2CCN(CCCOc3cc(NCCOCCNC(=O)CN4CCN(CC(=O)O)CCN(CC(=O)O)CCN(CC(=O)O)CC4)cc(C(=O)O)c3)C2)n1 (stereo in doubt) [Compound 13, 2,2′,2″-(10-(2-((2-(2-((3-carboxy-5-(3-((R)-3-(3-((R)-4-(4-chloro-2-(difluoromethyl)benzoyl)-2-ethylpiperazin-1-yl)-6-(2-ethoxyphenyl)picolinamido)pyrrolidin-1-yl)propoxy)phenyl)amino)ethoxy)ethyl)amino)-2-oxoethyl)-1,4,7,10-tetraazacyclododecane-1,4,7-triyl)triacetic acid] | < 10 nM |
| CCOc1ccc(C(=O)N2CCN(c3ccc(-c4cccnc4OCC)nc3CNCCCNC(=O)C[C@H](O)C[C@H](O)CCNC(=O)CN3CCN(CC(=O)O)CCN(CC(=O)O)CCN(CC(=O)O)CC3)[C@H](CC)C2)c(C(F)(F)F)n1 [Compound 6, 2,2′,2″-(10-(2-(((3R,5R)-7-((3-(((2′-ethoxy-5-((R)-4-(6-ethoxy-2-(trifluoromethyl)-nicotinoyl)-2-ethylpiperazin-1-yl)-[2,3′-bipyridin]-6-yl)methyl)amino)propyl)-amino)-3,5-dihydroxy-7-oxoheptyl)amino)-2-oxoethyl)-1,4,7,10-tetraazacyclododecane-1,4,7-triyl)triacetic acid] | < 10 nM |
| CCOc1ccccc1-c1ncc(C2(C(=O)N[C@@H]3CCN(CCOCCOCCOCCOCCNC(=O)CN4CCN(CC(=O)O)CCN(CC(=O)O)CCN(CC(=O)O)CC4)C3)CCN(c3ccc(C(F)(F)F)cc3C#N)CC2)cc1F [Compound 9, (R)-2,2′,2″-(10-(17-(3-(1-(2-cyano-4-(trifluoromethyl)phenyl)-4-(6-(2-ethoxy-phenyl)-5-fluoropyridin-3-yl)piperidine-4-carboxamido)pyrrolidin-1-yl)-2-oxo-6,9,12,15-tetra-oxa-3-azaheptadecyl)-1,4,7,10-tetraazacyclododecane-1,4,7-triyl)triacetic acid] | < 10 nM |
| CCOc1ccc(C(=O)N2CCN(c3ccc(-c4cccnc4OCC)nc3CNCCCCCCCCCCCCCCCNC(=O)CN3CCN(CC(=O)O)CCN(CC(=O)O)CCN(CC(=O)O)CC3)[C@H](CC)C2)c(C(F)(F)F)n1 [Compound 14, (R)-2,2′,2″-(10-(2-((15-(((2′-ethoxy-5-(4-(6-ethoxy-2-(trifluoromethyl)nicotinoyl)-2-ethylpiperazin-1-yl)-[2,3′-bipyridin]-6-yl)methyl)amino)pentadecyl)amino)-2-oxoethyl)-1,4,7,10-tetraazacyclododecane-1,4,7-triyl)triacetic acid] | < 10 nM |
| CCOc1ccc(C(=O)N2CCN(c3ccc(-c4cccnc4OCC)cc3CNCCNCCCOCCOCCOCCOCCNC(=O)CN3CCN(CC(=O)O)CCN(CC(=O)O)CCN(CC(=O)O)CC3)[C@H](CC)C2)c(C(F)(F)F)n1 [Compound 15, (R)-2,2′,2″-(10-(1-(2-(4-(6-ethoxy-2-(trifluoromethyl)nicotinoyl)-2-ethylpiperazin-1-yl)-5-(2-ethoxypyridin-3-yl)phenyl)-22-oxo-9,12,15,18-tetraoxa-2,5,21-triazatricosan-23-yl)-1,4,7,10-tetraazacyclododecane-1,4,7-triyl)triacetic acid] | < 10 nM |
| CCOc1ccc(C(=O)N2CCN(c3ccc(-c4ccccc4OCC)nc3CNCCNCCCOCCOCCOCCOCCNC(=O)CN3CCN(CC(=O)O)CCN(CC(=O)O)CCN(CC(=O)O)CC3)[C@H](CC)C2)c(C(F)(F)F)c1 [Compound 17, (R)-2,2′,2″-(10-(1-(3-(4-(4-ethoxy-2-(trifluoromethyl)benzoyl)-2-ethylpiperazin-1-yl)-6-(2-ethoxyphenyl)pyridin-2-yl)-22-oxo-9,12,15,18-tetraoxa-2,5,21-triazatricosan-23-yl)-1,4,7,10-tetraazacyclododecane-1,4,7-triyl)triacetic acid] | < 10 nM |
| CCOc1ccc(C(=O)N2CCN(c3ccc(-c4cccnc4OCC)nc3CNCCCOCCOCCOCCOCCNC(=O)CCC(C(=O)O)N3CCN(CC(=O)O)CCN(CC(=O)O)CCN(CC(=O)O)CC3)[C@H](CC)C2)c(C(F)(F)F)n1 (stereo partly drawn) [Compound 18, 2,2′,2″-(10-(22-carboxy-1-(2′-ethoxy-5-((R)-4-(6-ethoxy-2-(trifluoromethyl)-nicotinoyl)-2-ethylpiperazin-1-yl)-(2,3′-bipyridin]-6-yl)-19-oxo-6,9,12,15-tetraoxa-2,18-diazadocosan-22-yl)-1,4,7,10-tetraazacyclododecane-1,4,7-triyl)triacetic acid] | < 10 nM |
| CCOc1ccc(C(=O)N2CCN(c3ccc(-c4cccnc4OCC)cc3CNCCNCCCOCCOCCOCCOCCNC(=O)CN3CCN(CC(=O)[O-])CCN(CC(=O)[O-])CCN(CC(=O)[O-])CC3)[C@H](CC)C2)c(C(F)(F)F)n1.[Ga+3] [^69/71Ga complex of Compoud 15, gallium (R)-2,2′,2″-(10-(1-(2-(4-(6-ethoxy-2-(trifluoromethyl)nicotinoyl)-2-ethylpiperazin-1-yl)-5-(2-ethoxypyridin-3-yl)phenyl)-22-oxo-9,12,15,18-tetraoxa-2,5,21-triazatricosan-23-yl)-1,4,7,10-tetraazacyclododecane-1,4,7-triyl)triacetate] | < 10 nM |
| CCOc1ccc(C(=O)N2CCN(c3ccc(-c4cccnc4OCC)nc3CNCCCC[C@@H](NC(=O)CN3CCN(CC(=O)O)CCN(CC(=O)O)CCN(CC(=O)O)CC3)C(=O)O)[C@H](CC)C2)c(C(F)(F)F)n1 [^115In complex of Compound 2] | < 10 nM |
| CCOc1ccc(C(=O)N2CCN(c3ccc(-c4ccccc4OCC)nc3CNCCCOc3cc(NCCOCCNC(=O)CN4CCN(CC(=O)O)CCN(CC(=O)O)CCN(CC(=O)O)CC4)cc(C(=O)O)c3)[C@H](CC)C2)c(C(F)(F)F)c1 [^115In complex of Compound 3] | < 10 nM |
| CCOc1ccc(C(=O)N2CCN(c3ccc(-c4cccnc4OCC)nc3CNCCCN(CCOCCOCCOCCNC(=O)CN3CCN(CC(=O)O)CCN(CC(=O)O)CCN(CC(=O)O)CC3)CCOCCOCCOCCNC(=O)CN3CCN(CC(=O)O)CCN(CC(=O)O)CCN(CC(=O)O)CC3)[C@H](CC)C2)c(C(F)(F)F)n1 [^115In complex of Compound 4] | < 10 nM |
| CCOc1ccc(C(=O)N2CCN(c3ccc(-c4cccnc4OCC)nc3CNCCCNC(=O)[C@@H](N)CC(=O)NCCOCCNC(=O)CN3CCN(CC(=O)O)CCN(CC(=O)O)CCN(CC(=O)O)CC3)[C@H](CC)C2)c(C(F)(F)F)n1 [^115In complex of Compound 5] | < 10 nM |
| (R)-2,2′,2″-(10-(1-(3-(4-(4-ethoxy-2-(trifluoromethyl)benzoyl)-2-ethylpiperazin-1-yl)-6-(2-ethoxyphenyl)pyridin-2-yl)-19-oxo-6,9,12,15-tetraoxa-2,18-diazaicosan-20-yl)-1,4,7,10-tetraazacyclododecane-1,4,7-triyl)triacetic acid [Compound 11] | < 10 nM |
